Experimental data published in US20160177395A1, “BIOMARKERS FOR THE PREDICTION OF RENAL INJURY” (priority 2007, published 2016).
Where “and” joins values, the source holds several entries; their conditions need not be identical. Equal entries are not always repeated.

Test system: kidney tissues of treated or untreated rats
Assay: Real-time qRT-PCR of marker transcripts in kidney tissue panel, discovery stage (Table 22)
Format: in vivo, rat
Set-up: AI502869_DB71_seg0 normalized Real Time PCR expression: unit not given beside the values
Details: listed as CadCl; for normalized Real Time PCR RATRAB13X_DB81_seg15-17 / normalized Real Time PCR RATRAB13X_DB81_seg22 / normalized Real Time PCR W33294_DB81_seg23 / normalized Real Time PCR W33294_DB81_seg44 / normalized Real Time PCR MMU09507_DB81_seg15 / normalized Real Time PCR MUSCYCG1R_DB81_seg19-20: kidney
Procedure: Before RT preparation the RNA was treated with DNA-free (Ambion, cat. No. AM1906) DNase treatment and removal—according to manufacturer protocol. DNase procedure was repeated until no DNA is detected in a PCR reaction using the RNA samples.
The mixture is then incubated for 5 min at 65° C. and then quickly chilled on ice. Thereafter, 20 μl of 5× SuperscriptII first strand buffer (Invitrogen, Cat. No. Y00146), 9.6 μl 0.1M DTT (Invitrogen, Cat. No. Y00147) and 160 units RNasin (Promega, Cat. No. N251A) are added, and the mixture is incubated for 10 min at 25° C., followed by further incubation at 42° C. for 2 min. […] The resulting cDNA is diluted 1:20 in TE buffer (10 mM Tris pH=8, 1 mM EDTA pH=8).
cDNA (5 μl), prepared as described above, is used as a template in Real-Time PCR reactions using the SYBR Green I assay (PE Applied Biosystem) with specific primers in 100 nM concentration if not indicated otherwise and UNG Enzyme (Eurogentech or equal) Amplification is effected as follows: 50° C. for 2 min, 95° C. for 10 min, and then 40 cycles of 95° C. for 15 sec, followed by 60° C. for 1 min (if not indicated otherwise). Amplification step is followed by dissociation step. Detection is performed by using the PE Applied Biosystem SDS 7000. The cycle in which the reactions achieved a threshold level (Ct) of fluorescence is registered and is used to calculate the relative transcript quantity in the RT reactions. Non-detected samples are assigned Ct value of 41 and are calculated accordingly. The relative quantity is calculated using the equation Q=efficiencŷ-Ct. The efficiency of the PCR reaction is calculated from a standard curve, created by using serial dilutions of several reverse transcription (RT) reactions. To minimize inherent differences in the RT reaction, the resulting relative quantities are normalized to normalization factor calculated as follows: […]
The relative quantity (Q) of each housekeeping gene in each sample is calculated as described above. In order to calculate the “relative Q relative to MED” each Q for each HSKP gene is divided by the median quantity of this gene in all panel samples. To finally achieve the normalization factor of each sample the geometric mean of all four “relative Q relative to MED” was calculated. The normalization factor was then used for further calculations.
The markers of the present invention were tested with regard to their expression in a panel of kidney tissues samples from treated and control rats. Unless otherwise noted, all experimental data relates to the novel polynucleotides and proteins of the present invention, named according to the segment being tested (as expression was tested through RT-PCR as described). Tests were then performed as described in the “Materials and Experimental Procedures” section above.
The qRT-PCR measurements were normalized according to each samples normalization factor as described in “RT Preparation and Real-Time qRT-PCR Analysis” and further multiplied by a constant factor for ease of viewing.

[1] = rat kidney, day1, individual animals (F and M)
[2] = rat kidney, day1, individual animals

## [Cl][Cd][Cl] [Cadmium chloride]
Female rats, day1
  normalized Real Time PCR RATRAB13X_DB81_seg15-17: 1.63 and 1.8 and 1.55
  normalized Real Time PCR RATRAB13X_DB81_seg22: 1.73 and 1.83 and 1.16
  normalized Real Time PCR W33294_DB81_seg23: 1.9 and 1.74 and 1.36
  normalized Real Time PCR W33294_DB81_seg44: 1.79 and 1.39 and 1.57
Female rats, day5
  normalized Real Time PCR MMU09507_DB81_seg15: 0.87 and 0.56
  normalized Real Time PCR MUSCYCG1R_DB81_seg19-20: 1.21 and 1.01
  normalized Real Time PCR RATRAB13X_DB81_seg15-17: 1.81 and 0.97
  normalized Real Time PCR RATRAB13X_DB81_seg22: 1.56 and 1.1
  normalized Real Time PCR W33294_DB81_seg23: 1.76 and 1.7
  normalized Real Time PCR W33294_DB81_seg44: 2.05 and 1.37
Female rats, day28
  normalized Real Time PCR MUSCYCG1R_DB81_seg19-20: 0.54 and 0.62 and 0.56
  normalized Real Time PCR RATRAB13X_DB81_seg15-17: 0.83 and 0.89 and 0.82
  normalized Real Time PCR RATRAB13X_DB81_seg22: 0.7 and 0.9 and 0.46
  normalized Real Time PCR W33294_DB81_seg23: 0.94 and 0.97 and 0.85
  normalized Real Time PCR W33294_DB81_seg44: 0.88 and 0.69 and 0.7
Male rats, day1
  normalized Real Time PCR MUSCYCG1R_DB81_seg19-20: 0.58 and 1.03 and 0.78
  normalized Real Time PCR RATRAB13X_DB81_seg15-17: 0.73 and 0.92 and 1.01
  normalized Real Time PCR RATRAB13X_DB81_seg22: 0.92 and 1.29 and 0.67
  normalized Real Time PCR W33294_DB81_seg23: 0.62 and 0.31 and 0.37
Male rats, day5
  normalized Real Time PCR MMU09507_DB81_seg15: 0.33 and 0.49 and 0.38
  normalized Real Time PCR MUSCYCG1R_DB81_seg19-20: 1.22 and 1.12 and 1.04
  normalized Real Time PCR RATRAB13X_DB81_seg15-17: 1.18 and 0.88 and 1.07
  normalized Real Time PCR RATRAB13X_DB81_seg22: 1.65 and 1.58 and 1.21
  normalized Real Time PCR W33294_DB81_seg23: 1.41 and 1.45 and 1.03
  normalized Real Time PCR W33294_DB81_seg44: 1.32 and 1.43 and 1.42
Male rats, day28
  normalized Real Time PCR MMU09507_DB81_seg15: 0.42 and 0.45
  normalized Real Time PCR RATRAB13X_DB81_seg22: 0.63 and 0.87 and 0.49
  normalized Real Time PCR W33294_DB81_seg23: 0.7 and 0.65
  normalized Real Time PCR W33294_DB81_seg44: 0.73 and 0.53
[1]
  H33998_DB71_seg19 normalized Real Time PCR: 2.29 and 2.51 and 0.01 and 0.76 and 0.66 and 0.69
  MUSCYCG1R_DB81_seg15-17 normalized Real Time PCR: 1.91 and 1.36 and 1.68 and 0.61 and 0.73 and 0.36
  RATLRFI_DB71_seg9 normalized Real Time PCR: 0.27 (2×) and 0.33 and 0.32 and 0.36 and 0.23
  RATRAB13X_DB71_seg11-13 normalized Real Time PCR: 0.95 (2×) and 1.2 and 1.05 and 1.22 and 1.14
  RNU24174_DB71_seg8 normalized Real Time PCR: 0.3 and 0.29 and 0.49 and 0.2 and 0.4 and 0.22
  W41270_DB81_seg11 normalized Real Time PCR: 1.44 and 1.78 and 1.48 and 0.5 and 0.62 and 0.43
  W64472_DB81_seg2 normalized Real Time PCR: 1.07 (2×) and 1.1 and 0.55 and 1.45 and 0.41
  W83813_DB81_seg27 normalized Real Time PCR: 2.07 and 2.19 and 1.66 and 0.47 and 0.51 and 0.65
[2]
  AA686189_DB71_seg6 normalized Real Time PCR expression: 0.38 (2×) and 0.52 and 0.36 and 0.59 and 0.64
  AA799594_DB71_seg0 normalized Real Time PCR expression: 1.25 and 1.43 and 1.27 and 1.09 and 1.15 and 1.05
  AA964541_DB71_seg0 normalized Real Time PCR expression: 0.41 and 0.55 and 0.3 and 0.28 and 0.6 and 0.56
  AI045075_DB71_seg6 normalized Real Time PCR expression: 0.6 and 0.54 and 0.5 and 0.66 and 0.87 and 0.84
  AI454051_DB71_seg0 normalized Real Time PCR expression: 1.47 and 1.46 and 1.08 and 1.48 and 2.13 and 0.77
  AI502869_DB71_seg0 normalized Real Time PCR expression: 0.54 and 1.37 and 0.56 and 1.14 and 2.59 and 0.86
